Reference: ChEMBL document CHEMBL1158593, “Structure-activity relationships in human toll-like receptor 7-active imidazoquinoline analogues” (J Med Chem, 2010)

Biological target: T1, Toll-like receptor 7 (Homo sapiens, UniProt Q9NYK1)
T1 sequence (Q9NYK1 whole entry): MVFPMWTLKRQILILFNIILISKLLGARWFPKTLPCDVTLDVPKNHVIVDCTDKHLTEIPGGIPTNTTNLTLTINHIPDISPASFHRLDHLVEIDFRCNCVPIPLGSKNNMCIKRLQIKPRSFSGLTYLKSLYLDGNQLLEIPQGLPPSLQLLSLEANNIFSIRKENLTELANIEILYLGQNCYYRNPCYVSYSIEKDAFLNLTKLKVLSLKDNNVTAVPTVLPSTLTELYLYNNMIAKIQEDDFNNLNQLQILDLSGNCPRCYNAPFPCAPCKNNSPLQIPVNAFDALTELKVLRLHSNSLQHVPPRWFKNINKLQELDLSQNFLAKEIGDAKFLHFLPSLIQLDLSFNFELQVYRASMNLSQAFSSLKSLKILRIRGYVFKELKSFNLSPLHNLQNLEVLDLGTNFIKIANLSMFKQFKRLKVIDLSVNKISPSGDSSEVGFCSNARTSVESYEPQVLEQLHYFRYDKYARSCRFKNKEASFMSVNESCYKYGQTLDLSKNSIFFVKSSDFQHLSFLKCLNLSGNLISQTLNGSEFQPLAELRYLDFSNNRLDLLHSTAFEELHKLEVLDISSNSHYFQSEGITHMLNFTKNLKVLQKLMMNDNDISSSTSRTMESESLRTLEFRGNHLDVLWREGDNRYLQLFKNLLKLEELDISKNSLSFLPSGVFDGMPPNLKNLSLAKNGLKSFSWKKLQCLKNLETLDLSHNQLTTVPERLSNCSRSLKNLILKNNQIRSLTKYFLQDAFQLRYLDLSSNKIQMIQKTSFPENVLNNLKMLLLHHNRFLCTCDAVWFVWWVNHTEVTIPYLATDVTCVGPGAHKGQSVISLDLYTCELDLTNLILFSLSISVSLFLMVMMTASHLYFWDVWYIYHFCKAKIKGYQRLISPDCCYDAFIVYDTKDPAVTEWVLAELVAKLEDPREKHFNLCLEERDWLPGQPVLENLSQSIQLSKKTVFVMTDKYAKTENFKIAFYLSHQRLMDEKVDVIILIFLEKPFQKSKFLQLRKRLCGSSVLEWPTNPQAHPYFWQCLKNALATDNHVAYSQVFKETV
Description: Agonist activity at human TLR7 expressed in NF-kappaB-stimulated HEK293 cells assessed as induction of secreted alkaline phosphatase expression by reporter gene assay

SMILES	EC50 [nM]
CC(C)Cn1cnc2c(N)nc3ccccc3c21 [IMIQUIMOD]	2120
Cc1nc2c(N)nc3ccccc3c2n1Cc1ccccc1	955
C=CCCc1nc2c(N)nc3ccccc3c2n1Cc1ccccc1	262
CCCCc1nc2c(N)nc3ccccc3c2n1Cc1ccccc1	59.1
CCCCc1nc2c(NN)nc3ccccc3c2n1Cc1ccccc1	873
CCCc1nc2c(N)nc3ccccc3c2n1Cc1ccccc1	647
CCCCCCCCCc1nc2c(N)nc3ccccc3c2n1Cc1ccccc1	3350
CCCCCCCc1nc2c(N)nc3ccccc3c2n1Cc1ccccc1	822
CCCCCCc1nc2c(N)nc3ccccc3c2n1Cc1ccccc1	479
CCN(CCC#N)Cc1nc2c(N)nc3ccccc3c2n1CC(C)(C)O	8390
CCc1nc2c(N)nc3ccccc3c2n1Cc1ccccc1	472

The next lines start with the values.

EC50 [nM]	SMILES
723	CCCCc1nc2c(NO)nc3ccccc3c2n1Cc1ccccc1
7710	CCN(CC)Cc1nc2c(N)nc3ccccc3c2n1CC(C)(C)O
209	C#CCCc1nc2c(N)nc3ccccc3c2n1Cc1ccccc1
385	CCNCc1nc2c(N)nc3ccccc3c2n1Cc1ccccc1
91.5	CCCCCc1nc2c(N)nc3ccccc3c2n1Cc1ccccc1
